What was measured:
M. furfur (MTCC 1374) = assay: Lipid assimilation in vitro assay: growth of M. furfur on Sabouraud Dextrose agar supplemented with fatty acids/esters or oils; type: cell-based, Malassezia furfur; settings: up to 6 days
Source text: Malassezia species are lipophilic unipolar yeasts recognized as commensals of skin that may be pathogenic under certain conditions (Indian Journal of Medical Microbiology, (2004) 22 (3):179-181). To compare lipid requirements of the fungus most closely associated with dandruff/seborrheic dermatitis, the best studied Malassezia species is M. furfur. Lipid assimilation in vitro assay was designed to investigate lipid effect on growth of M. furfur (MTCC 1374).
Method: Briefly, Sabouraud Dextrose containing low-melt agar was melted, cooled to 38° C. Fatty acids/esters constituents eg, capric acid, caprylic acid, linoleic acid, oleic acid, lauric acid, palmitic acid, ethyl oleate, isopropyl myristate and oils containing fatty acid/esters eg, coconut oil, mustard oil etc., were added to study the growth of the fungus (Kaw Bing CHUA, et al Malaysian J Pathol (2005) 27(2): 99). After solidification, agar plates were streaked with M. furfur innoculum adjusted to appropriate cfu/ml, aseptically. Positive control with 2% olive oil and negative control without fatty substance were also maintained.
Malassezia species are lipophilic, unipolar yeasts recognized as commensals of skin that may be pathogenic under certain conditions. To compare lipid requirements of the fungus most closely associated with dandruff/seborrheic dermatitis, the best studied Malassezia species is M. furfur. A lipid assimilation in vitro assay was designed to investigate lipid effect <C-11 fatty acid or their esters on growth of M. furfur (MTCC 1374).
Briefly, Sabouraud Dextrose containing low-melt agar was melted and cooled to 38° C. Fatty acids/esters constituents, e.g., caprylic acid, capric acid and Monocaprylate of propylene glycol, were added in 2% concentration to study the growth of the fungus. After solidification, agar plates were streaked with M. furfur innoculum adjusted to appropriate cfu/ml, aseptically. Positive control with 2% olive oil and negative control without fatty substance were also maintained.
A lipid assimilation in vitro assay was designed to investigate lipid effect >C-10 fatty acid or their esters on growth of M. furfur (MTCC 1374). Sabouraud Dextrose containing low-melt agar was melted and cooled to 38° C. Fatty acids/esters constituents, e.g. fatty acids or esters, such as lauric acid, palmitic acid, myristic acid, oleic acid, linoleic acid, isopropyl myristate, ethyl oleate, mustard oils, coconut oil were added at different concentration to study the growth of the fungus. Positive control with 2% olive oil and negative control without fatty substance were also maintained. After solidification, agar plates were streaked with M. furfur innoculum adjusted to appropriate cfu/ml, aseptically.

[1] = test system: Malassezia furfur (MTCC 1374); assay: MIC by agar dilution method in Leeming Notman Medium; type: cell-based; parameters: key: “+” indicates growth of fungus; “−” indicates no growth of fungus; settings: M. furfur
Experimental: The Minimum Inhibitory Concentration (MIC) is considered as an index for indicating Anti-fungal efficacy. Therefore lower the value of MIC of the composition, the better is its anti-fungal efficacy.
Method: The in vitro activities of some of the oil compositions containing piroctone olamine against Malassezia furfur (MTCC 1374) were determined by agar dilution methods (Jan Faergemann, et al Acta Derm Venereol, (2006), 86:312; Irith Wiegand, et al Nature Protocols (2008), 3:163) Appropriate dilutions of solubilized antifungal compositions were added to molten Leeming Notman Medium. Once the plates were set, M. furfur innoculum adjusted to appropriate cfu/ml was streaked on the agar plates and incubated for 6 days. […] The MIC is defined as as the lowest concentration of antifungal agents that inhibits visible growth of fungus.
Method: The in vitro activities of some of the oil compositions containing ketoconazole against Malassezia furfur (MTCC 1374) were determined by agar dilution methods. Appropriate dilutions of antifungal compositions were added to molten Leeming Notman Medium. Once the plates were set, M. furfur innoculum adjusted to appropriate cfu/ml was streaked on the agar plates and incubated for 6 days. […] The MIC is defined as the lowest tested dilution of antifungal active that yields no growth.
B) Study of MIC of Oil Compositions Devoid of C-11 or Greater Fatty Acids/Esters Containing Antifungal Agent Piroctone Olamine Against M. furfur Under in vitro Conditions.

M. obtusa = assay: MIC of oil compositions against M. obtusa; type: cell-based; parameters: key: “+” indicates growth of fungus; “−” indicates no growth of fungus
[2] = Example 6B, different concentration (olive oil 2%)
[3] = Table 6, compositions of Table 5
[4] = piroctone olamine oil compositions, incubated 6 days

CCCCCCCC(=O)O [caprylic acid]
Growth of M. furfur with the substance as nutrient in culture media (M. furfur (MTCC 1374); Example 3): no growth
Growth of M. furfur with the substance as nutrient in culture media (M. furfur (MTCC 1374); Example 6A, 2% concentration): no growth

CCCCCCCC/C=C\CCCCCCCC(=O)OCC [ethyl oleate]
Growth of M. furfur with the substance as nutrient in culture media (M. furfur (MTCC 1374); Example 3): confluent growth
Growth of M. furfur with the substance as nutrient in culture media (M. furfur (MTCC 1374); [2]): confluent growth

Cc1cc(CC(C)CC(C)(C)C)n(O)c(=O)c1.NCCO (stereo not drawn) [PO in DMSO, Piroctone olamine]
Growth of fungus at concentration 8 μg/ml (MIC determination) [1, 3]: +
Growth of fungus at concentration 8 μg/ml (MIC determination) [1, 4]: +
Growth of fungus at concentration 16 μg/ml (MIC determination) [1, 3]: +
Growth of fungus at concentration 16 μg/ml (MIC determination) [1, 4]: +
Growth of fungus at concentration 32 μg/ml (MIC determination) [1, 3]: −
Growth of fungus at concentration 32 μg/ml (MIC determination) [1, 4]: −
Growth of fungus at concentration 64 μg/ml (MIC determination) [1, 3]: −
Growth of fungus at concentration 64 μg/ml (MIC determination) [1, 4]: −
Growth of fungus at concentration 4 μg/ml (MIC determination) (M. obtusa; 4 μg/ml): +
Growth of fungus at concentration 8 μg/ml (MIC determination) (M. obtusa; 8 μg/ml): +
Growth of fungus at concentration 16 μg/ml (MIC determination) (M. obtusa; 16 μg/ml): +
Growth of fungus at concentration 32 μg/ml (MIC determination) (M. obtusa; 32 μg/ml): −
Growth of fungus at concentration 64 μg/ml (MIC determination) (M. obtusa; 64 μg/ml): −

CCCCCCCCCCCCCC(=O)O [myristic acid]
Growth of M. furfur with the substance as nutrient in culture media (M. furfur (MTCC 1374); [2]): confluent growth

CCCCC/C=C\C/C=C\CCCCCCCC(=O)O [linoleic acid]
Growth of M. furfur with the substance as nutrient in culture media (M. furfur (MTCC 1374); Example 3): confluent growth
Growth of M. furfur with the substance as nutrient in culture media (M. furfur (MTCC 1374); [2]): confluent growth

CC(=O)N1CCN(c2ccc(OCC3COC(Cn4ccnc4)(c4ccc(Cl)cc4Cl)O3)cc2)CC1 (stereo not drawn) [Keto in DMSO, Ketoconazole]
Growth of fungus at concentration 0.0625 μg/ml (MIC determination) ([1]; 0.0625 μg/ml, ketoconazole oil compositions, incubated 6 days): +
Growth of fungus at concentration 0.125 μg/ml (MIC determination) ([1]; 0.125 μg/ml, ketoconazole oil compositions, incubated 6 days): +
Growth of fungus at concentration 0.25 μg/ml (MIC determination) ([1]; 0.25 μg/ml, ketoconazole oil compositions, incubated 6 days): −
Growth of fungus at concentration 0.5 μg/ml (MIC determination) ([1]; 0.5 μg/ml, ketoconazole oil compositions, incubated 6 days): −
Growth of fungus at concentration 1 μg/ml (MIC determination) ([1]; 1 μg/ml, ketoconazole oil compositions, incubated 6 days): −
Growth of fungus at concentration 2 μg/ml (MIC determination) ([1]; 2 μg/ml, ketoconazole oil compositions, incubated 6 days): −

CCCCCCCCCC(=O)O [capric acid]
Growth of M. furfur with the substance as nutrient in culture media (M. furfur (MTCC 1374); Example 3): no growth
Growth of M. furfur with the substance as nutrient in culture media (M. furfur (MTCC 1374); Example 6A, 2% concentration): no growth

CCCCCCCCCCCC(=O)O [lauric acid]
Growth of M. furfur with the substance as nutrient in culture media (M. furfur (MTCC 1374); Example 3): confluent growth
Growth of M. furfur with the substance as nutrient in culture media (M. furfur (MTCC 1374); [2]): confluent growth

CCCCCCCC/C=C\CCCCCCCC(=O)O [oleic acid]
Growth of M. furfur with the substance as nutrient in culture media (M. furfur (MTCC 1374); Example 3): confluent growth
Growth of M. furfur with the substance as nutrient in culture media (M. furfur (MTCC 1374); [2]): confluent growth

CCCCCCCCCCCCCC(=O)OC(C)C [isopropyl myristate]
Growth of M. furfur with the substance as nutrient in culture media (M. furfur (MTCC 1374); Example 3): confluent growth
Growth of M. furfur with the substance as nutrient in culture media (M. furfur (MTCC 1374); [2]): confluent growth

CCCCCCCCCCCCCCCC(=O)O [palmitic acid]
Growth of M. furfur with the substance as nutrient in culture media (M. furfur (MTCC 1374); Example 3): confluent growth
Growth of M. furfur with the substance as nutrient in culture media (M. furfur (MTCC 1374); [2]): confluent growth
